In US12268694B2, “Combination pharmaceutical agents as RSV inhibitors” (Enanta Pharmaceuticals, Inc., priority 2017, dated 2025):
pEC50: −log10 of the molar value. Read-outs that look alike come from different tables or passages of the source.

Experiments:
[1] = tested on: RSV genotype B, strain 9320; experiment: RSV-B assay: A549 cells infected with RSV-B, qPCR or ATPlite readout; assay type: cell-based; conditions: read-out: Human RSV-B EC50
Source text: HEp-2 cells, (originally derived from tumors grown in irradiated-cortisonised weanling rats that had been injected with epidermoid carcinoma tissue from a person's larynx, but later found to be indistinguishable from HeLa cells by PCR DNA analysis), were used for the culturing of genotype B, strain 9320. Flasks were inoculated with RSV-B and viral stocks were collected once cytopathic effect (CPE) was greater than […]. Viral stocks in 25% sucrose media were snap frozen using liquid nitrogen to increase viral stability. Viral stock titers were quantified by tissue culture infectious dose 50% (TCID50) using 8,000 cells per well and 5-fold viral dilutions across a 96-well plate, cultured for 4 days. Viral stock titers were also quantified by a plaque forming unit assay, as described elsewhere.
The assay is run as follows: A549 cells (originally derived through explant culture from a person's carcinomatous lung tissue) are seeded into the inner 60 wells of a 96-well plate at 3,000 cells per well in a volume of 50 μL using A549 growth media (F-12K Media, 1% Penn/Strep, 1% nonessential amino acids, 10% heat-inactivated FBS). 2-fold serial dilutions of control and test compounds are added to the wells in duplicate in a total volume of 25 μL. Viral stock is then added to the wells at a multiplicity of infection (MOI) of 0.5 in a volume of 25 μL, bringing the total volume of each well to 100 μL. The MOI is calculated using the PFU/mL, or TCID50 if unavailable. Each 96-well plate has a control column of 6 wells with cells and virus but no compound (negative control, max CPE), a column with cells but no compound or virus (positive control, minimum CPE), and a column with no cells or virus or compound (background plate/reagent control). The control wells with cells but no virus are given an additional 25 μL of growth media containing an equal quantity of sucrose as those wells receiving the viral stock in order to keep consistent in media and volume conditions. The outer wells of the plate are filled with 125 μL of moat media (DMEM, 1% Penn/Strep) to act as a thermal and evaporative moat around the test wells. 6 days post infection, the plates are read using qPCR or ATP lite (50 μL added per well), which quantifies the amount of ATP (a measure of cell health) present in each well. Assay plates treated with APTlite are read using the Envision luminometer. […] EC50 ranges are as follows: A <0.4 μM; B 0.4-0.8 μM; C >0.8 μM.

[2] = tested on: genotype A, "Long" strain RSV; experiment: RSV-A assay: CPE protection in HEp-2 cells, ATPlite readout; assay type: cell-based, human respiratory syncytial virus
Summary of the method: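 HEp-2 cells (8,000/well) with 2-fold compound dilutions in duplicate, infected with Long-strain RSV at MOI 0.1 and incubated 5 days. Cell ATP measured by ATPlite luminescence to give EC50; uninfected parallel plate gives CC50.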

HEp-2 cells = experiment: Cytotoxicity in parallel to the RSV-A assay (no virus), ATPlite readout; assay type: cell-based, human
Protocol: Following extensive parameter testing, the final assay is run as follows: HEp-2 cells are seeded into the inner 60 wells of a 96-well plate at 8,000 cells per well in a volume of 50 μL using Growth Media (DMEM without phenol red, 1% L-Glut, 1% Penn/Strep, 1% nonessential amino acids, 10% heat-inactivated FBS). 2-fold serial dilutions of control and test compounds are added to the wells in duplicate in a total volume of 25 μL. Viral stock is then added to the wells at a multiplicity of infection (MOI) of 0.1 in a volume of 25 μL, bringing the total volume of each well to 100 μL. The MOI is calculated using the PFU/mL, or TCID50 if unavailable. Each 96-well plate has a control column of 6 wells with cells and virus but no compound (negative control, max CPE), a column with cells but no compound or virus (positive control, minimum CPE), and a column with no cells or virus or compound (background plate/reagent control). The control wells with cells but no virus are given an additional 25 μL of growth media containing an equal quantity of sucrose as those wells receiving the viral stock in order to keep consistent in media and volume conditions. The outer wells of the plate are filled with 125 μL of moat media (DMEM, 1% Penn/Strep) to act as a thermal and evaporative moat around the test wells. Following a 5-day incubation period, the plates are read using ATPlite (50 μL added per well), which quantifies the amount of ATP (a measure of cell health) present in each well. Assay plates are read using the Envision luminometer. In parallel, cytotoxicity is examined on an additional 96-well plate treated in an identical manner, but substituting the 25 μL of viral stock for 25 μL of growth media. […] EC50 ranges are as follows: A <0.4 μM; B 0.4-0.8 μM; C >0.8 μM and CC50 ranges are as follows: A >50 μM; B 10-50 μM; C <10 μM.

[3] = HEp-2 cells, RSV-A Long strain, ATPlite readout, read-out: Human RSV-A (“Long” strain) EC50
[4] = human respiratory syncytial virus, HEp-2, read-out: Human RSV-A (“Long” strain) EC50
[5] = human respiratory syncytial virus, A549, 144 h

Structure (SMILES) | pEC50 ([1]; A549 cells, strain 9320, MOI 0.5, 6 days post infection) | pEC50 [2, 3] | CC50 (HEp-2 cells) [nM] | pEC50 [2, 4] | pEC50 [1, 5]
O=C1Nc2c(F)cccc2C(c2ccccc2)=N[C@@H]1Nc1nnc(-c2cccnc2N2CCOCC2)o1 (single isomer, unassigned) [Example 358] | > 6.40 | > 6.40 |  |  | 
N#Cc1ccc(-c2nnc(NC3N=C(c4ccccc4)c4ccccc4NC3=O)s2)cc1 (stereo not shown) [Example 82] |  |  | > 50000 | 6.10 to 6.40 | 
O=C1Nc2ccccc2C(c2ccccc2)=NC1Nc1nnc(-c2ccncc2)s1 (stereo not shown) [Example 83] |  |  | > 50000 | < 6.10 | 
O=C1Nc2ccccc2C(c2ccccc2)=NC1Nc1ncc(-c2ccccc2)o1 (stereo not shown) [Example 84] |  |  | 10000 to 50000 | < 6.10 | 
O=C1Nc2ccccc2C(c2ccccc2)=NC1Nc1nnc(-c2ccccc2)[nH]1 (stereo not shown) [Example 86] |  |  | > 50000 | < 6.10 | 
O=C1Nc2ccccc2C(c2ccccc2)=NC1Nc1nc(-c2ccccc2)ns1 (stereo not shown) [Example 87] |  |  | 10000 to 50000 | < 6.10 | 
O=C1Nc2ccccc2C(c2ccccc2)=NC1Nc1nc(N2CCOCC2)ns1 (stereo not shown) [Example 88] |  |  | 10000 to 50000 | < 6.10 | 
O=C1Nc2ccccc2C(c2ccccc2)=NC1Nc1nc(-c2ccccc2)no1 (stereo not shown) [Example 89] |  | < 6.10 | 10000 to 50000 |  | 
O=C1Nc2ccccc2C(c2ccccc2)=NC1Nc1nc(-c2ccccc2)cs1 (stereo not shown) [Example 90] |  |  | < 10000 | < 6.10 | 
O=C1Nc2ccccc2C(c2ccccc2)=NC1Nc1cc(-c2ccccc2)ncn1 (stereo not shown) [Example 92] |  |  | 10000 to 50000 | < 6.10 | 
O=C1Nc2ccccc2C(c2ccccc2)=NC1Nc1cc(N2CCOCC2)ncn1 (stereo not shown) [Example 93] |  |  | 10000 to 50000 | < 6.10 | 
O=C1Nc2ccccc2C(c2ccccc2)=NC1Nc1cc(Oc2ccccc2)ncn1 (stereo not shown) [Example 94] |  |  | 10000 to 50000 | < 6.10 | 
O=C1Nc2ccccc2C(c2ccccc2)=NC1Nc1ccc(-c2ccccc2)nn1 (stereo not shown) [Example 95] |  |  |  | 6.10 to 6.40 | < 6.10
O=C1Nc2ccccc2C(c2ccccc2)=NC1Nc1ccnc(-c2ccccc2)n1 (stereo not shown) [Example 96] |  |  | 10000 to 50000 | < 6.10 | 
O=C1Nc2ccccc2C(c2ccccc2)=NC1Nc1cccn(Cc2ccccc2)c1=O (stereo not shown) [Example 97] |  |  | > 50000 | < 6.10 | 
O=C1Nc2ccccc2C(c2ccccc2)=NC1Nc1nc2ccc(Cl)cc2o1 (stereo not shown) [Example 99] |  |  | 10000 to 50000 | < 6.10 | 
O=C1Nc2ccccc2C(c2ccccc2)=NC1Nc1nc2ccccc2o1 (stereo not shown) [Example 100] |  |  | 10000 to 50000 | < 6.10 | 
O=C1Nc2ccccc2C(c2ccccc2)=NC1Nc1nc2ccccc2s1 (stereo not shown) [Example 101] |  |  | 10000 to 50000 | < 6.10 | 
O=C1Nc2ccccc2C(c2ccccc2)=NC1Nc1nc2ccc(F)cc2o1 (stereo not shown) [Example 103] |  |  | 10000 to 50000 | < 6.10 | 
O=C1Nc2ccccc2C(c2ccccc2)=NC1Nc1nc2cc(F)ccc2o1 (stereo not shown) [Example 104] |  |  | 10000 to 50000 | < 6.10 | 
O=C1Nc2ccccc2C(c2ccccc2)=NC1Nc1nc2c(F)cccc2o1 (stereo not shown) [Example 105] |  |  | > 50000 | < 6.10 | 
Cc1ccc2oc(NC3N=C(c4ccccc4)c4ccccc4NC3=O)nc2c1 (stereo not shown) [Example 106] |  |  | < 10000 | < 6.10 | 

Structure (SMILES) | pEC50 ([1]; A549 cells, strain 9320, MOI 0.5, 6 days post infection) | pEC50 [2, 3] | CC50 (HEp-2 cells) [nM] | pEC50 [2, 4] | pEC50 [1, 5]
CN(C)c1ccc(-c2nnc(NC3N=C(c4ccccc4)c4ccccc4NC3=O)o2)nc1 (stereo not shown) [Example 108] |  |  |  | < 6.10 | < 6.10
O=C1Nc2ccccc2C(c2ccccc2)=NC1Nc1nnc(-c2cccnc2N2CCOCC2)o1 (stereo not shown) [Example 120] |  |  |  | > 6.40 | 6.10 to 6.40
O=C1Nc2ccccc2C(c2ccccc2)=NC1Nc1nnc(-c2ccc(C(F)(F)F)cc2N2CCOCC2)o1 (stereo not shown) [Example 123] |  |  |  | > 6.40 | 6.10 to 6.40
O=C1Nc2ccccc2C(c2ccccc2)=NC1Nc1nnc(-c2ccc(N3CCOCC3)cc2)o1 (stereo not shown) [Example 124] |  |  |  |  | > 6.40
O=C1Nc2ccccc2C(c2ccccc2)=NC1Nc1nnc(-c2ccccc2N2CCOCC2)o1 (stereo not shown) [Example 125] |  |  |  |  | 6.10 to 6.40
O=C1Nc2ccccc2C(c2ccccc2)=NC1Nc1nnc(-c2ccc(F)cc2N2CCOCC2)o1 (stereo not shown) [Example 127] |  |  |  | > 6.40 | > 6.40
O=C1Nc2ccccc2C(c2ccccc2)=NC1Nc1nnc(-c2ccc(-n3cccn3)cc2N2CCOCC2)o1 (stereo not shown) [Example 129] |  |  |  | > 6.40 | > 6.40
N#Cc1ccc(-c2nnc(NC3N=C(c4ccccc4)c4ccccc4NC3=O)o2)c(N2CCOCC2)c1 (stereo not shown) [Example 131] |  |  |  | > 6.40 | > 6.40
O=C1Nc2ccccc2C(c2ccccc2)=N[C@@H]1Nc1nnc(-c2ncc(F)cc2N2CCOCC2)o1 [Example 136, (S)-3-((5-(5-fluoro-3-morpholinopyridin-2-yl)-1,3,4-oxadiazol-2-yl)amino)-5-phenyl-1,3-dihydro-2H-benzo[e][1,4]diazepin-2-one] |  |  |  | > 6.40 | > 6.40
Cc1ccc(-c2nnc(NC3N=C(c4ccccc4)c4ccccc4NC3=O)o2)c(N2CCOCC2)n1 (stereo not shown) [Example 144] |  |  |  | > 6.40 | > 6.40
N#Cc1ccc(-c2nnc(N[C@H]3N=C(c4ccccc4)c4ccccc4NC3=O)o2)c(N2CCOCC2)n1 [Example 153] |  |  |  | > 6.40 | > 6.40
Cn1c(N2CCOCC2)c(-c2nnc(N[C@H]3N=C(c4ccccc4)c4ccccc4NC3=O)o2)ccc1=O [Example 155] |  |  |  | > 6.40 | > 6.40
Cc1nc(N2CCOCC2)c(-c2nnc(N[C@H]3N=C(c4ccccc4)c4ccccc4NC3=O)o2)cc1C#N [Example 158] |  |  |  | > 6.40 | > 6.40
N#Cc1cnc(-c2nnc(N[C@H]3N=C(c4ccccc4)c4ccccc4NC3=O)o2)c(N2CCOCC2)c1 [Example 160] |  |  |  |  | > 6.40
O=C1Nc2ccccc2C(c2ccccc2)=N[C@@H]1Nc1nnc(-c2ncc(Br)cc2N2CCOCC2)o1 [Example 168] |  |  |  | > 6.40 | > 6.40
O=C1Nc2ccccc2C(c2ccccc2)=N[C@@H]1Nc1nnc(-c2ncc(C3CC3)cc2N2CCOCC2)o1 [Example 169] |  |  |  | > 6.40 | > 6.40
N#Cc1cc(-c2nnc(N[C@H]3N=C(c4ccccc4)c4ccccc4NC3=O)o2)c(N2CCOCC2)nc1C1CC1 [Example 175] |  |  |  | > 6.40 | 6.10 to 6.40
O=C1Nc2ccccc2C(c2ccccc2)=N[C@@H]1Nc1nnc(-c2oc3ccccc3c2N2CCOCC2)o1 [Example 179] |  |  |  | > 6.40 | > 6.40
CN1CCN(c2ccccc2-c2nnc(NC3N=C(c4ccccc4)c4ccccc4NC3=O)o2)CC1 (stereo not shown) [Example 224] |  |  |  | < 6.10 | > 6.40
O=C1Nc2ccccc2C(c2ccccc2)=N[C@@H]1Nc1nnc(-c2cccnc2N2CCOCC2)o1 [Example 242] |  |  |  | > 6.40 | > 6.40
C[C@@H]1COCCN1c1ncccc1-c1nnc(NC2N=C(c3ccccc3)c3ccccc3NC2=O)o1 (stereo partly shown) [Example 245] |  |  |  | > 6.40 | 6.10 to 6.40
O=C1Nc2ccccc2C(c2ccccc2)=N[C@@H]1Nc1nnc(-c2ncc(C(F)(F)F)cc2N2C3CCC2COC3)o1 [Example 250] |  |  |  | > 6.40 | > 6.40
